# Measurements as given in patent US11566007B2, “Ras inhibitors” (Revolution Medicines, Inc., priority 2019, dated 2023).
# pIC50: −log10 of the molar value.
# Legend:
# Assay type in all cases: biochemical
# [1] = molecular target: K-Ras G12C (Homo sapiens (Human), UniProt P01116+P62937, G12C); assay: Ras-Raf (BRAF RBD) disruption / FRET / MOA assay, KRAS G12C; settings: KRAS G12C; Ras-Raf disruption/FRET/MOA assay; read-out: IC50* KRAS G12C FRET data
# Procedure, shortened: (§1)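 Compounds, top final concentration 30 μM in 10-point 3-fold series, incubated 3 hours at 25° C with nucleotide-loaded Ras, cyclophilin A and BRAF RBD.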
# [2] = molecular target: K-Ras G13C (Homo sapiens (Human), UniProt P01116+P62937, G13C); assay: Ras-Raf (BRAF RBD) disruption / FRET / MOA assay, KRAS G13C; settings: KRAS G13C; Ras-Raf disruption/FRET/MOA assay; read-out: IC50* KRAS G13C FRET data
# K-Ras G13C, sequence (P01116-2 other isoform, or with tags, fused parts or gaps G13C): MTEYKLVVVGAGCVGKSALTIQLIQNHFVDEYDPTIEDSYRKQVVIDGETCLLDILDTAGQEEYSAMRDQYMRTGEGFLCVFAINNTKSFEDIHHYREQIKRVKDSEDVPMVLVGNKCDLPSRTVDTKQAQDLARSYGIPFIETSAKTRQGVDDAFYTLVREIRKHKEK
# K-Ras G13C, sequence (P62937 whole entry): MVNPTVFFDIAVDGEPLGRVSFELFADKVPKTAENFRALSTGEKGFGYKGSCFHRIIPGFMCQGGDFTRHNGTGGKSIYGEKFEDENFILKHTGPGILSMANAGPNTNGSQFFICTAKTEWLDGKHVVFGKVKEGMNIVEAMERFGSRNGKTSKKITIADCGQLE
# Procedure, shortened: as §1
# [3] = molecular target: KRAS G12D (Homo sapiens (Human), UniProt P01116+P62937, G12D); assay: Ras-Raf (BRAF RBD) disruption / FRET / MOA assay, KRAS G12D; settings: Ras-Raf disruption/FRET/MOA assay; class symbols; read-out: KRAS G12D FRET data IC50
# KRAS G12D, sequence (P01116-2 other isoform, or with tags, fused parts or gaps G12D): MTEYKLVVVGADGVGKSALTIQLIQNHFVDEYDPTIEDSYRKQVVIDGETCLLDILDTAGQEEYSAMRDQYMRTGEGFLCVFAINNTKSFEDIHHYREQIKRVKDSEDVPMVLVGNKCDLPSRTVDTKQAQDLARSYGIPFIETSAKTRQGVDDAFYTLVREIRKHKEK
# KRAS G12D, sequence (P62937 whole entry): as the sequence (P62937 whole entry) above
# Procedure, shortened: as §1
# [4] = molecular target: KRAS G12V (Homo sapiens (Human), UniProt P01116+P62937, G12V); assay: Ras-Raf (BRAF RBD) disruption / FRET / MOA assay, KRAS G12V; settings: read-out: IC50* KRAS G12V FRET data
# KRAS G12V, sequence (P01116-2 other isoform, or with tags, fused parts or gaps G12V): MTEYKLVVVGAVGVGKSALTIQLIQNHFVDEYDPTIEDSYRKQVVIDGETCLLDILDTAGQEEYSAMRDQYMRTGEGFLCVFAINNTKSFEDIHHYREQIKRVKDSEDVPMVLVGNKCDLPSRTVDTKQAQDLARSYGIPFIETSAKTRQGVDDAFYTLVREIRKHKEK
# KRAS G12V, sequence (P62937 whole entry): as the sequence (P62937 whole entry) above
# Procedure, shortened: as §1
# [5] = molecular target: KRAS G13D (Homo sapiens (Human), UniProt P01116+P62937, G13D); assay: Ras-Raf (BRAF RBD) disruption / FRET / MOA assay, KRAS G13D; settings: read-out: IC50* KRAS G13D FRET data
# KRAS G13D, sequence (P01116-2 other isoform, or with tags, fused parts or gaps G13D): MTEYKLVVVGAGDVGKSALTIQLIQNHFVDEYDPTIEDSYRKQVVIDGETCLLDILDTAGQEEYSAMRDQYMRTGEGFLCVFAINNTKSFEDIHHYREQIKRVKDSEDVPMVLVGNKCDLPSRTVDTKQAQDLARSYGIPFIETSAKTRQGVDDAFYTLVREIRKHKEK
# KRAS G13D, sequence (P62937 whole entry): as the sequence (P62937 whole entry) above
# Procedure, shortened: as §1
# [6] = molecular target: KRAS Q61H (Homo sapiens (Human), UniProt P01116+P62937, Q61H); assay: Ras-Raf (BRAF RBD) disruption / FRET / MOA assay, KRAS Q61H; settings: Ras-Raf disruption/FRET/MOA assay; class symbols; read-out: KRAS Q61H FRET data IC50
# KRAS Q61H, sequence (P01116-2 other isoform, or with tags, fused parts or gaps Q61H): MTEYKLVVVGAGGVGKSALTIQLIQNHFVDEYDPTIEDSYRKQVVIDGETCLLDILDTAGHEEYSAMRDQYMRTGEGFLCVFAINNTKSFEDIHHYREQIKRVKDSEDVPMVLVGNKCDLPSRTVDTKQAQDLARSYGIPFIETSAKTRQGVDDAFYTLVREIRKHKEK
# KRAS Q61H, sequence (P62937 whole entry): as the sequence (P62937 whole entry) above
# Procedure, shortened: (§2)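 TR-FRET disruption of nucleotide-loaded Ras binding to BRAF RBD via compound-driven ternary complex with cyclophilin A. Compound as 10-point 3-fold series from 30 μM final, 3 h at 25° C, then anti-His Eu-W1024 (10 nM) and anti-GST allophycocyanin (50 nM) for 1.5 h. IC50 from decreased FRET ratio versus DMSO.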
# [7] = molecular target: NRAS G12C (Homo sapiens (Human), UniProt P01111+P62937, G12C); assay: Ras-Raf (BRAF RBD) disruption / FRET / MOA assay, NRAS G12C; settings: read-out: IC50* NRAS G12C FRET data
# NRAS G12C, sequence (P01111 whole entry G12C): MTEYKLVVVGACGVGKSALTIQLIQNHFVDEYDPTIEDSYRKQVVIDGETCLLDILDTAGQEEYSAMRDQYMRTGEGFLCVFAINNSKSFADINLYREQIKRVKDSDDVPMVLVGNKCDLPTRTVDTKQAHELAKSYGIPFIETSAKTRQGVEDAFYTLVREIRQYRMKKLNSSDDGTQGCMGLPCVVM
# NRAS G12C, sequence (P62937 whole entry): as the sequence (P62937 whole entry) above
# Procedure, shortened: as §1
# [8] = molecular target: NRAS Q61K (Homo sapiens (Human), UniProt P01111+P62937, Q61K); assay: Ras-Raf (BRAF RBD) disruption / FRET / MOA assay, NRAS Q61K; settings: NRAS Q61K; Ras-Raf disruption/FRET/MOA assay; read-out: IC50* NRAS Q61K FRET data
# NRAS Q61K, sequence (P01111 whole entry Q61K): as the sequence (P01111 whole entry G12C) above, with C12G, Q61K counted along it
# NRAS Q61K, sequence (P62937 whole entry): as the sequence (P62937 whole entry) above
# Procedure, shortened: as §2
# [9] = molecular target: NRAS WT (Homo sapiens (Human), UniProt P01111+P62937); assay: Ras-Raf (BRAF RBD) disruption / FRET / MOA assay, NRAS WT; settings: read-out: IC50* NRAS WT FRET data
# NRAS WT, sequence (P01111 whole entry): as the sequence (P01111 whole entry G12C) above, with C12G counted along it
# NRAS WT, sequence (P62937 whole entry): as the sequence (P62937 whole entry) above
# Procedure, shortened: as §2
# K-Ras G12C, sequence (P01116-2 other isoform, or with tags, fused parts or gaps G12C): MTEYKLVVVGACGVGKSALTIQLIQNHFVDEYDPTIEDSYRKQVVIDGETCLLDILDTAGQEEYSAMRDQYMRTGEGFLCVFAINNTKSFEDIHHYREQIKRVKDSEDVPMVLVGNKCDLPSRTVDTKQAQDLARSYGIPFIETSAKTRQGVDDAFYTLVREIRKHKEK
# K-Ras G12C, sequence (P62937 whole entry): as the sequence (P62937 whole entry) above
SMILES,pIC50 [1],pIC50 [2],pIC50 [3],pIC50 [4],pIC50 [5],pIC50 [6],pIC50 [7],pIC50 [8],pIC50 [9]
"C=CC(=O)N1CCN(C(=O)N(C)[C@H](C(=O)N[C@H]2Cc3nc(cs3)-c3ccc4c(c3)c(c(-c3cccnc3[C@H](C)OC)n4CC)CC(C)(C)COC(=O)[C@@H]3CCCN(N3)C2=O)C(C)C)CC12CC2 (atropisomer, axis not shown) [Example A417]",7.00 to 8.00,7.00 to 8.00,6.00 to 7.00,6.00 to 7.00,6.00 to 7.00,7.00 to 8.00,7.00 to 8.00,7.00 to 8.00,7.00 to 8.00
"CCn1c(-c2cccnc2[C@H](C)OC)c2c3cc(ccc31)-c1csc(n1)C[C@H](NC(=O)[C@H](C(C)C)N(C)C(=O)N1CCN(C(=O)/C=C/CN(C)C)C3(CC3)C1)C(=O)N1CCC[C@H](N1)C(=O)OCC(C)(C)C2 (atropisomer, axis not shown) [Example A701]",7.00 to 8.00,6.00 to 7.00,6.00 to 7.00,6.00 to 7.00,6.00 to 7.00,7.00 to 8.00,7.00 to 8.00,7.00 to 8.00,6.00 to 7.00
"C=CC(=O)N1CCOC2(C1)CN(C(=O)N(C)[C@H](C(=O)N[C@H]1Cc3nc(cs3)-c3ccc4c(c3)c(c(-c3cccnc3[C@H](C)OC)n4CC(F)(F)F)CC(C)(C)COC(=O)[C@@H]3CCCN(N3)C1=O)C(C)C)C2 (atropisomer, axis not shown) [Example A604]",6.00 to 7.00,7.00 to 8.00,5.00 to 6.00,6.00 to 7.00,5.00 to 6.00,6.00 to 7.00,6.00 to 7.00,6.00 to 7.00,6.00 to 7.00
C=CC(=O)N(C)[C@H]1CC1N(C)C(=O)N(C)[C@H](C(=O)N[C@H]1Cc2nc(cs2)-c2ccc3c(c2)c(c(-c2cccnc2[C@H](C)OC)n3CC)CC(C)(C)COC(=O)[C@@H]2CCCN(N2)C1=O)C(C)C (stereo partly drawn) [Example A738],6.00 to 7.00,6.00 to 7.00,5.00 to 6.00,5.00 to 6.00,5.00 to 6.00,6.00 to 7.00,6.00 to 7.00,6.00 to 7.00,6.00 to 7.00
"CCn1c(-c2cccnc2[C@H](C)OC)c2c3cc(ccc31)-c1cccc(c1)C[C@H](NC(=O)[C@H](C(C)C)N1CC[C@@]3(CCN(C(=O)C#C[C@H]4COCCN4C4COC4)C3)C1=O)C(=O)N1CCC[C@H](N1)C(=O)OCC(C)(C)C2 (atropisomer, axis not shown) [Example A567]",7.00 to 8.00,6.00 to 7.00,5.00 to 6.00,5.00 to 6.00,5.00 to 6.00,6.00 to 7.00,7.00 to 8.00,5.00 to 6.00,5.00 to 6.00
"CCn1c(-c2cccnc2[C@H](C)OC)c2c3cc(ccc31)-c1csc(n1)C[C@H](NC(=O)[C@H](C(C)C)N(C)C(=O)N1CCC3(CC1)CN(C(=O)/C=C/CF)C3)C(=O)N1CCC[C@H](N1)C(=O)OCC(C)(C)C2 (atropisomer, axis not shown) [Example A622]",7.00 to 8.00,7.00 to 8.00,6.00 to 7.00,6.00 to 7.00,6.00 to 7.00,7.00 to 8.00,7.00 to 8.00,7.00 to 8.00,6.00 to 7.00
"C=CC(=O)N1CC[C@H](C(=O)N(C)[C@H](C(=O)N[C@H]2Cc3cccc(c3)-c3ccc4c(c3)c(c(-c3cc5c(nc3[C@H](C)OC)CCN(C)C5)n4CC)CC(C)(C)COC(=O)[C@@H]3CCCN(N3)C2=O)C(C)C)C1 (atropisomer, axis not shown) [Example A461]",6.00 to 7.00,5.00 to 6.00,< 5.00,5.00 to 6.00,< 5.00,5.00 to 6.00,6.00 to 7.00,5.00 to 6.00,5.00 to 6.00
"C=CC(=O)N1CC[C@H](C(=O)N(C)[C@@H](CC(F)(F)F)C(=O)N[C@H]2Cc3cccc(c3)-c3ccc4c(c3)c(c(-c3cccnc3[C@H](C)OC)n4CC)CC(C)(C)COC(=O)[C@@H]3CCCN(N3)C2=O)C1 (atropisomer, axis not shown) [Example A639]",6.00 to 7.00,5.00 to 6.00,< 5.00,5.00 to 6.00,< 5.00,5.00 to 6.00,6.00 to 7.00,5.00 to 6.00,5.00 to 6.00
